ChEMBL document CHEMBL2073867, “cDNA cloning and inducible expression of human multidrug resistance associated protein 3 (MRP3)” (FEBS Lett, 1998)

What was measured:
[1] = biological target: Multidrug resistance associated protein (Homo sapiens) (UniProt Q96QA9); test: (§1) TP_TRANSPORTER: Northern blot from HepG2 cells; assay type: functional, cell-based
[2] = biological target: Multidrug resistance-associated protein 1 (Homo sapiens, UniProt P33527); test: as §1; assay type: functional, cell-based
Chain of Multidrug resistance-associated protein 1 (P33527 whole entry): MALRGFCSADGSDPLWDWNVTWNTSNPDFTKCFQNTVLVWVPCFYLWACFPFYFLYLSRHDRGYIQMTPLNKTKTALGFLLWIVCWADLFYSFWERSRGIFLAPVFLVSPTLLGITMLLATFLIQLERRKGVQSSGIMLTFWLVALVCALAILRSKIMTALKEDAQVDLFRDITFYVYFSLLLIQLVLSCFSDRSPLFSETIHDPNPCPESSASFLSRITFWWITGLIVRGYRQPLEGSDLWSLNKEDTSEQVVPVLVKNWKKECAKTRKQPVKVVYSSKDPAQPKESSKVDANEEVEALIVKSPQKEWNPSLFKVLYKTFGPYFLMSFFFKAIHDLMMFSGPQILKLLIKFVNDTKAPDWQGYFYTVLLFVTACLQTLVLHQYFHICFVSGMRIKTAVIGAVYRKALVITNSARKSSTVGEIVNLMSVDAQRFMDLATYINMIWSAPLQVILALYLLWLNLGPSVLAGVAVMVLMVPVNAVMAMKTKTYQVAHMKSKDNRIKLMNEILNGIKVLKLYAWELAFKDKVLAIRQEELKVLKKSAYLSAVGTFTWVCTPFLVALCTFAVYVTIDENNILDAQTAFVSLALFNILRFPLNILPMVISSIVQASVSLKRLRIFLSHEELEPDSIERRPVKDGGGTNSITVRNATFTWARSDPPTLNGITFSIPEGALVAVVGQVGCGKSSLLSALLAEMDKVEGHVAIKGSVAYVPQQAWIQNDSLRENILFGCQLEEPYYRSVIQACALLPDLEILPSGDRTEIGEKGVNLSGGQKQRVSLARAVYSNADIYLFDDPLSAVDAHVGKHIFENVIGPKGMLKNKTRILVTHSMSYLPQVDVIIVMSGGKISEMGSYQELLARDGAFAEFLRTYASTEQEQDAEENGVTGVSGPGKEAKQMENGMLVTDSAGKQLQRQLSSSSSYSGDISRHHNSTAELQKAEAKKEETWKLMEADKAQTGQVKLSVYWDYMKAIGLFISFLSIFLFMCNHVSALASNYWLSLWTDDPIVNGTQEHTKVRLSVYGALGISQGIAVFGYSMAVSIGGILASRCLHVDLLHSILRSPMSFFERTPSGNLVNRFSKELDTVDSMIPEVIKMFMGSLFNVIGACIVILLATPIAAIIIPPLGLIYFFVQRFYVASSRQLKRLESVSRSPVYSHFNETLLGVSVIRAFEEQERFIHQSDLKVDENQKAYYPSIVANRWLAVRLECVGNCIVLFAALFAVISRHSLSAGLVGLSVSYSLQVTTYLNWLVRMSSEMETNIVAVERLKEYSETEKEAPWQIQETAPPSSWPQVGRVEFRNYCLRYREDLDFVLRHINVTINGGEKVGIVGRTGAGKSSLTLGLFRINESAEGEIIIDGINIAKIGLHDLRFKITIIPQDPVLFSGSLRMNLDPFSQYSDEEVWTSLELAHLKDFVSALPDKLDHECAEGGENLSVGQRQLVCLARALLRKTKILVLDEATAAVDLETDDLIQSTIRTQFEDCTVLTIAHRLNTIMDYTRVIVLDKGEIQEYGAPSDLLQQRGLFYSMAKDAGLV

Chain of Multidrug resistance associated protein (Homo sapiens) (Q96QA9 as listed by the source): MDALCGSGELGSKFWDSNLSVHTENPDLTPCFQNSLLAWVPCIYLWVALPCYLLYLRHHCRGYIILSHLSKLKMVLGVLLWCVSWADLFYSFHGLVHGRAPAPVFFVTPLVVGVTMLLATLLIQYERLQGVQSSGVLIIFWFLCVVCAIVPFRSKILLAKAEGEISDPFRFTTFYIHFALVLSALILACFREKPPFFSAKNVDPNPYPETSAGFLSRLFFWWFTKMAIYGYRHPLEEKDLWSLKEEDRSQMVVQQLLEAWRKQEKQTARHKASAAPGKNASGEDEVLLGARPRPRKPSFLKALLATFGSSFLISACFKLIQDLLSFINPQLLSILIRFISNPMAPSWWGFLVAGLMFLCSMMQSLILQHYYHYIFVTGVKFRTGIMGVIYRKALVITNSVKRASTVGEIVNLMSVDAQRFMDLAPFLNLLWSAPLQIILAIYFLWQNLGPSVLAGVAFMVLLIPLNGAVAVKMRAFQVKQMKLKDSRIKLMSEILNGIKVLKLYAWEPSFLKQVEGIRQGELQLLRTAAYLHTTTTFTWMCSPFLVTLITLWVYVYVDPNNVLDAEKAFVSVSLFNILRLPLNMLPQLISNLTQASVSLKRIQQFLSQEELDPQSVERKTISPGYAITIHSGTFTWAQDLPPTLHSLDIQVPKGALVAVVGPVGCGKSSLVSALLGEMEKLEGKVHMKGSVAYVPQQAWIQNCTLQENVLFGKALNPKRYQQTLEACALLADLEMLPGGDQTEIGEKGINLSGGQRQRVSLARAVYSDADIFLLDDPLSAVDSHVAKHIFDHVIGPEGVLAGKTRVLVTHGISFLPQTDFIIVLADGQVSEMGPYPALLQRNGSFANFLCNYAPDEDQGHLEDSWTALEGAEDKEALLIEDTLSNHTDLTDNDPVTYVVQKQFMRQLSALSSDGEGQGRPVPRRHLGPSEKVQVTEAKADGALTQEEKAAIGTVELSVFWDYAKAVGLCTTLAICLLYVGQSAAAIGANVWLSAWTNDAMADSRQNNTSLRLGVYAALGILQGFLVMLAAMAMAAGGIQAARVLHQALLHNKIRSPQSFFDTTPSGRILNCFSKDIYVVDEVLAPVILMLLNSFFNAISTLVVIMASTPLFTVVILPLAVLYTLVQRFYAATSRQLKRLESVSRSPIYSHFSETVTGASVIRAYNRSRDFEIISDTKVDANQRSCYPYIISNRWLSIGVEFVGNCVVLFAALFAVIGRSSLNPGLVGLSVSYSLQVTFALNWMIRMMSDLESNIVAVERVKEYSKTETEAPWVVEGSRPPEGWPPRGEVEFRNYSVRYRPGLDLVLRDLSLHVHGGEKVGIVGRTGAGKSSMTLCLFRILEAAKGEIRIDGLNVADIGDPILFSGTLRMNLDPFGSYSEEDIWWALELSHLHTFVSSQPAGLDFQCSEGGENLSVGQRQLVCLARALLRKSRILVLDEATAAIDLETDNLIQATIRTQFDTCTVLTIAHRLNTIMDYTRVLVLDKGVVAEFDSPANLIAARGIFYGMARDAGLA

CCC1(c2ccccc2)C(=O)NC(=O)NC1=O [PHENOBARBITAL] was tested. Which Activity [1] did it give?
Its Activity is “inducer [+]”.

What about the Activity [2] of the same compound?
The Activity was “inducer [+]”.
